The values below are quoted from earlier work in patent US9770423B2, “Modulation sAPP, sAAPα and BDNF levels in individuals diagnosed with FXS and ASD” (Indiana University Research and Technology Corp., priority 2012, dated 2017).

Data set [1] has as its system fmr1 knockout mouse. To be noted: literature; cited from earlier work.
Data set [2] relates to subjects with FXS. The conditions noted are these: cited from earlier work.
Data set [3] deals with males with FXS. To be noted: cited from earlier work.
The subject of data set [4] is drinking-in-the-dark mouse model. The conditions noted are these: cited from earlier work.
Data set [5] has as its system adults with FXS. To be noted: single dose, cited from earlier work.
For data set [6], the system named is cerebellar granule cells from FMR1 knockout mice. To be noted: cultured cerebellar granule cells from FMR1 knockout mice; cited from earlier work.
Data set [7] deals with persons with FXS and comorbid ASD. To be noted: cited from earlier work.

As for `NC[C@H](CC(=O)O)c1ccc(Cl)cc1` (single isomer, unassigned) [STX209], the “effect on phenotype of fmr1 knockout mice” value (“effect on phenotype” below) in data set [1] was “correction of aberrant protein synthesis and dendritic spine abnormalities”. For the same compound, the “ABC-SW and VABS Socialization, post-hoc subset” value in data set [2] (27 subject subset with baseline ABC-SW score of ≧8) is recorded as “significant STX209-associated improvement”. For the same compound, the “primary outcome measure, ABC Irritability (ABC-I) subscale” value in data set [2] (63 subjects aged 6 to 40 years with FXS) is reported as “not associated with improvement”. For the same compound, in data set [2] (63 subjects with FXS), the “Social Avoidance scale (ABC-SA), post-hoc analysis” value is “significant group-wide improvement”; the “global measures (CGI-I, CGI-S), other ABC subscales, Visual Analog Scale” value is “Group-wide effects were also not noted”; the subjects reporting sedation is reported as 8%.
In the case of `COC(=O)N1CC[C@@H]2[C@H]1CCC[C@@]2(O)C#Cc1cccc(C)c1` [AFQ056], in data set [3] (7 subject subset), the “response in subset with full FMR1 gene methylation (ABC, CGI-I, Visual Analogue Scale, Repetitive Behavior Scale-Revised)” value is given as “significant response to AFQ056 compared to placebo”. Further, the group treatment effect entry in data set [3] (30 males with FXS aged 18 to 35 years) is reported as “not associated with significant group treatment effect”.
On to `Cc1cccc(C#Cc2ccccc2)n1` [MPEP, 2-methyl-6-(phenylethynyl)-pyridine], for which the “effect on phenotype” value in data set [1] is “reverse phenotypic characteristics, including audiogenic seizures, altered pre-pulse inhibition (PPI), and open field hyperactivity”.
As for `Cc1nc(C#Cc2cccnc2)cs1` [MTEP, 3-((2-Methyl-4-thiazolyl)ethynyl)pyridine], in data set [4], the alcohol intake entry is “reduced alcohol intake”.
Take `CC(=O)[C@H]1CC[C@H]2[C@@H]3CC[C@H]4C[C@H](O)CC[C@]4(C)[C@H]3C(=O)C[C@]12C` [alphaxalone]: the “effect on phenotype” value in data set [1] is “reductions in anxiety and rescue of audiogenic seizures”.
As for `CN1CC(=O)NC1=NC(=O)Nc1cccc(Cl)c1` [fenobam], in data set [5] (3 of 12 adults with FXS), the “subjects experiencing mild sedation” value was 25%. Further, the “subjects who experienced clinical benefit” value in data set [5] (9 of 12 adults with FXS, reductions in hyperactivity and anxiety) is 75%. For the same compound, in data set [5] (12 adults with FXS), the pharmacokinetics entry was “variable pharmacokinetics” and the tolerability result is listed as “good tolerability”.
Turning to `Oc1noc2c1CCNC2` [gaboxadol], the “effect on phenotype” value in data set [1] was “restored neuron excitability deficits in the amygdala, reduced hyperactivity, and reduced PPI deficits”.
As for `CC12CC3CC(C)(C1)CC(N)(C3)C2` [memantine], the “dendritic spine development and synapse formation” value in data set [6] was “correction of dendritic spine development and synapse formation”. Further, the “subjects with clinical response (CGI-I very much improved or much improved)” value in data set [7] (four of 6 persons with FXS and comorbid ASD) is 67%. In data set [7] (of 6 persons), the “subjects with treatment limiting irritability” value is recorded as “Two subjects”.
In the case of `NCCS(=O)(=O)O` [taurine], in data set [1], the “effect on phenotype” value is “Improvements in memory acquisition and retention”.
